Data: patent publication US11572369B2, “Bicyclic pyridine compositions and methods of using the same for cancer therapy” (UNIVERSITY OF SOUTH CAROLINA, priority 2019, dated 2023)

Legend:
Assay in all cases: KINOMEscan
Format in all cases: binding
Settings in all cases: 2000 nM
ACVR2B = target: T1, ACVR2B (Homo sapiens, UniProt Q13705)
T1 construct: purchased DiscoveRx (KINOMEscan scanMAX panel, service)

ASK2 = target: T2, ASK2 (Homo sapiens, UniProt O95382)
T2 construct: DNA label (qPCR read-out); purchased KINOMEscan scanMAX panel (DiscoveRx)

AURKB = target: T3, AURKB (Homo sapiens, UniProt Q96GD4)
T3 construct: DNA label (qPCR read-out); purchased KINOMEscan scanMAX panel (DiscoveRx)
T3 sequence (Q96GD4 whole entry): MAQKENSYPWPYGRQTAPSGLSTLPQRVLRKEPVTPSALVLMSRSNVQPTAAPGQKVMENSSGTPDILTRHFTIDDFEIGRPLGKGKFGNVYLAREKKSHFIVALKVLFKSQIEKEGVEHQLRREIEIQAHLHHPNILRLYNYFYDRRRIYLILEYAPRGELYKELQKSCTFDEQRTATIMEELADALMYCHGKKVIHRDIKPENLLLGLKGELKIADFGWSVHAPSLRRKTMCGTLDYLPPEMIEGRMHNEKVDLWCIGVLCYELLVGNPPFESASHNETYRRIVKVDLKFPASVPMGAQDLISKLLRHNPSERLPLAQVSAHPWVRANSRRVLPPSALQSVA

BLK = target: T4, BLK (Homo sapiens, UniProt P51451)
T4 construct: DNA label (for qPCR read-out); purchased KINOMEscan scanMAX panel (DiscoveRx)

BRSK2 = target: T5, BRSK2 (Homo sapiens, UniProt Q8IWQ3)
T5 construct: DNA label (for qPCR read-out); purchased KINOMEscan scanMAX panel (DiscoveRx)
T5 sequence (Q8IWQ3 whole entry): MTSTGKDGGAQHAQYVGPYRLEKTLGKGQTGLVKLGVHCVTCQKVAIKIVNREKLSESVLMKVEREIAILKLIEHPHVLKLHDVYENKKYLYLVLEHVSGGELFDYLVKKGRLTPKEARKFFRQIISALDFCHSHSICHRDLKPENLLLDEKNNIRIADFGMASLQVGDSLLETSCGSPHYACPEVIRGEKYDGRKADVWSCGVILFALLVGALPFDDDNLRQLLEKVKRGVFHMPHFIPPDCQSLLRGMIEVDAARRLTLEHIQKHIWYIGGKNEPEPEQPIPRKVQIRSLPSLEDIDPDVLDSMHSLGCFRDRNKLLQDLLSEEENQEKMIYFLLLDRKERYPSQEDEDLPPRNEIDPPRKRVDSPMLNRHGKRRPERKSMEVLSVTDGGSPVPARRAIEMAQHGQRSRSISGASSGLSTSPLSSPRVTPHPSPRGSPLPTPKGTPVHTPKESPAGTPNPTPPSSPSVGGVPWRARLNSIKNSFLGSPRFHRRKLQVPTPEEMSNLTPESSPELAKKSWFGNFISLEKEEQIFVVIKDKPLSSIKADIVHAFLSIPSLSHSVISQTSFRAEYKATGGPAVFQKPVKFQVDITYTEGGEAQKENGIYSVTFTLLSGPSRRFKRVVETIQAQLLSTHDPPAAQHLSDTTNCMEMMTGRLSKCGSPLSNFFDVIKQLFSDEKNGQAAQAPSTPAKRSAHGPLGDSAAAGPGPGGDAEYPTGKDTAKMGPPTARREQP

CAMK1B = target: T6, CAMK1B (Homo sapiens, UniProt Q6P2M8)
T6 construct: DNA label (qPCR read-out); purchased KINOMEscan (ScanMAX panel service)

CDK5 = target: T7, CDK5 (Homo sapiens, UniProt Q00535)
T7 construct: purchased DiscoverX (KINOMEscan service)

CLK4 = target: T8, CLK4 (Homo sapiens, UniProt Q9HAZ1)
T8 construct: DNA label (for qPCR read-out); purchased DiscoveRx (KINOMEscan scanMAX service)

CSNK1A1 = target: T9, CSNK1A1 (Homo sapiens, UniProt P48729)
T9 construct: DNA label (qPCR read-out); purchased DiscoverX (assay service)
T9 sequence (P48729 whole entry): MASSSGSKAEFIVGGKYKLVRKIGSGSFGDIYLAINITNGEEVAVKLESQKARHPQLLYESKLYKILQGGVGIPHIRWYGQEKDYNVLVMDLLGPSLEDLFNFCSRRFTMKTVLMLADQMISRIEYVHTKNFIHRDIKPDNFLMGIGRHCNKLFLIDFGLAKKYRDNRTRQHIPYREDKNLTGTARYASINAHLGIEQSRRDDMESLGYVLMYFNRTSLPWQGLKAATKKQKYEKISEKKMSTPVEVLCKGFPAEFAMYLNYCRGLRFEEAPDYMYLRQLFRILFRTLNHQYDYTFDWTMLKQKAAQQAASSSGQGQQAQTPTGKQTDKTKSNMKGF

DLK = target: T10, DLK (Homo sapiens, UniProt Q12852)
T10 construct: DNA label (qPCR read-out); purchased KINOMEscan (DiscoveRx) panel

ERBB3 = target: T11, ERBB3 (Homo sapiens, UniProt P21860)
T11 construct: DNA label (qPCR read-out); purchased DiscoveRx (KINOMEscan ScanMAX panel)

ERN1 = target: T12, ERN1 (Homo sapiens, UniProt O75460)
T12 construct: DNA label (qPCR read-out); purchased DiscoveRx (KINOMEscan ScanMAX panel)

FER = target: T13, FER (Homo sapiens, UniProt P16591)
T13 construct: DNA label (qPCR read-out); purchased DiscoveRx (KINOMEscan ScanMAX panel)
T13 sequence (P16591 whole entry): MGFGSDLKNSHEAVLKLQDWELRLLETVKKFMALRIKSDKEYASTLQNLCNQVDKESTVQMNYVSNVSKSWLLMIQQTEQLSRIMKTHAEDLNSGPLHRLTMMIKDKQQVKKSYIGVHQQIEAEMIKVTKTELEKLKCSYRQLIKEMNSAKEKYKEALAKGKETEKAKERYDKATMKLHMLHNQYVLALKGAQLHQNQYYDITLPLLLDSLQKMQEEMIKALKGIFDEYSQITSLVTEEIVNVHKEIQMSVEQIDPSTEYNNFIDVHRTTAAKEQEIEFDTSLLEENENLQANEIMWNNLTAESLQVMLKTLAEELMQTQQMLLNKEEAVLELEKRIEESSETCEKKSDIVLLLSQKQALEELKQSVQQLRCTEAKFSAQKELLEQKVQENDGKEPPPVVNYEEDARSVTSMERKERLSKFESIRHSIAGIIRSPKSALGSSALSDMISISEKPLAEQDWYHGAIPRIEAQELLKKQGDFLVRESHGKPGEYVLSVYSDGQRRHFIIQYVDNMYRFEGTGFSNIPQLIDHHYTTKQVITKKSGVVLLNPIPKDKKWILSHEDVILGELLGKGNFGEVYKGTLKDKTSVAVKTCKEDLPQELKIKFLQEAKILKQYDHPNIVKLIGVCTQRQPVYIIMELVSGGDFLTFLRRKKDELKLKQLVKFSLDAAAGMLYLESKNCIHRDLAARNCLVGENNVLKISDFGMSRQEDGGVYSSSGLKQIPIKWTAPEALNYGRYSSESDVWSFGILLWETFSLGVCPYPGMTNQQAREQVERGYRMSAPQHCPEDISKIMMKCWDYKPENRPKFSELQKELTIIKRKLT

FLT3(D835V) = target: T14, FLT3(D835V) (Homo sapiens, UniProt P36888, D835V)
T14 construct: purchased DiscoveRx (KINOMEscan scanMAX panel)

HIPK3 = target: T15, HIPK3 (Homo sapiens, UniProt Q9H422)
T15 construct: DNA label (for qPCR read-out); purchased DiscoveRx (KINOMEscan scanMAX panel, contract assay)
T15 sequence (Q9H422 whole entry): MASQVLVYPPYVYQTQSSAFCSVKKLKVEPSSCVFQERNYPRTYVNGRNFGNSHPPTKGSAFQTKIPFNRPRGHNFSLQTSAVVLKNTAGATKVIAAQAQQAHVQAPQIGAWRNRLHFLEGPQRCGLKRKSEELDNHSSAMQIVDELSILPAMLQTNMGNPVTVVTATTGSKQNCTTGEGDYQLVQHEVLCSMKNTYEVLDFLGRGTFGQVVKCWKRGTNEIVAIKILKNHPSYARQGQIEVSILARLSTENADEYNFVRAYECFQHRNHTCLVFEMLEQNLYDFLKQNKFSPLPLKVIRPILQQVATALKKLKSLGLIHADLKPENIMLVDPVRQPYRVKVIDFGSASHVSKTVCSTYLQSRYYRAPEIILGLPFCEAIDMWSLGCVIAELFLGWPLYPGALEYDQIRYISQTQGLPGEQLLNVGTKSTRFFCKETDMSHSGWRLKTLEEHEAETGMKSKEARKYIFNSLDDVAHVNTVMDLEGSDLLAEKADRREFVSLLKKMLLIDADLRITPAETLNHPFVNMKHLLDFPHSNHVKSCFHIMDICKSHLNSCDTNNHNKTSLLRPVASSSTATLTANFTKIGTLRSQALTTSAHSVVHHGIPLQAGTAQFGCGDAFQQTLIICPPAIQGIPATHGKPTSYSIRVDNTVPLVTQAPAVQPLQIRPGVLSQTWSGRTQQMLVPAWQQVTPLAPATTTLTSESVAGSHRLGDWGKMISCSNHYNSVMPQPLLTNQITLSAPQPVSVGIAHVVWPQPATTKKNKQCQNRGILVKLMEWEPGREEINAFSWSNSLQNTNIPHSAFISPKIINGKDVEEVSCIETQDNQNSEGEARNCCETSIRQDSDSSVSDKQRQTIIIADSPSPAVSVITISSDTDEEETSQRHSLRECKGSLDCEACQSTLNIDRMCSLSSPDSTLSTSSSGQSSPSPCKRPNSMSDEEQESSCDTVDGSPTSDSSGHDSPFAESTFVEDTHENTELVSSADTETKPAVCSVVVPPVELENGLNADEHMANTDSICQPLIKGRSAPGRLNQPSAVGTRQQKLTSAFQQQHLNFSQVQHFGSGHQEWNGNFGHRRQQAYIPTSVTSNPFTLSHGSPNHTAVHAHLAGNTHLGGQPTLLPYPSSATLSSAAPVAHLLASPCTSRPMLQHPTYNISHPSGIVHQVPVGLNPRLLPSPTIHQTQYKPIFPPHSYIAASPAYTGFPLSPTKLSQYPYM

IKK-alpha = target: T16, IKK-alpha (Homo sapiens, UniProt O15111)
T16 construct: DNA label (qPCR read-out); purchased KINOMEscan (DiscoveRx) ScanMAX panel

INSR = target: T17, INSR (Homo sapiens, UniProt P06213)
T17 construct: DNA label (qPCR read-out); purchased KINOMEscan (DiscoveRx) ScanMAX panel
T17 sequence (P06213 28-1382): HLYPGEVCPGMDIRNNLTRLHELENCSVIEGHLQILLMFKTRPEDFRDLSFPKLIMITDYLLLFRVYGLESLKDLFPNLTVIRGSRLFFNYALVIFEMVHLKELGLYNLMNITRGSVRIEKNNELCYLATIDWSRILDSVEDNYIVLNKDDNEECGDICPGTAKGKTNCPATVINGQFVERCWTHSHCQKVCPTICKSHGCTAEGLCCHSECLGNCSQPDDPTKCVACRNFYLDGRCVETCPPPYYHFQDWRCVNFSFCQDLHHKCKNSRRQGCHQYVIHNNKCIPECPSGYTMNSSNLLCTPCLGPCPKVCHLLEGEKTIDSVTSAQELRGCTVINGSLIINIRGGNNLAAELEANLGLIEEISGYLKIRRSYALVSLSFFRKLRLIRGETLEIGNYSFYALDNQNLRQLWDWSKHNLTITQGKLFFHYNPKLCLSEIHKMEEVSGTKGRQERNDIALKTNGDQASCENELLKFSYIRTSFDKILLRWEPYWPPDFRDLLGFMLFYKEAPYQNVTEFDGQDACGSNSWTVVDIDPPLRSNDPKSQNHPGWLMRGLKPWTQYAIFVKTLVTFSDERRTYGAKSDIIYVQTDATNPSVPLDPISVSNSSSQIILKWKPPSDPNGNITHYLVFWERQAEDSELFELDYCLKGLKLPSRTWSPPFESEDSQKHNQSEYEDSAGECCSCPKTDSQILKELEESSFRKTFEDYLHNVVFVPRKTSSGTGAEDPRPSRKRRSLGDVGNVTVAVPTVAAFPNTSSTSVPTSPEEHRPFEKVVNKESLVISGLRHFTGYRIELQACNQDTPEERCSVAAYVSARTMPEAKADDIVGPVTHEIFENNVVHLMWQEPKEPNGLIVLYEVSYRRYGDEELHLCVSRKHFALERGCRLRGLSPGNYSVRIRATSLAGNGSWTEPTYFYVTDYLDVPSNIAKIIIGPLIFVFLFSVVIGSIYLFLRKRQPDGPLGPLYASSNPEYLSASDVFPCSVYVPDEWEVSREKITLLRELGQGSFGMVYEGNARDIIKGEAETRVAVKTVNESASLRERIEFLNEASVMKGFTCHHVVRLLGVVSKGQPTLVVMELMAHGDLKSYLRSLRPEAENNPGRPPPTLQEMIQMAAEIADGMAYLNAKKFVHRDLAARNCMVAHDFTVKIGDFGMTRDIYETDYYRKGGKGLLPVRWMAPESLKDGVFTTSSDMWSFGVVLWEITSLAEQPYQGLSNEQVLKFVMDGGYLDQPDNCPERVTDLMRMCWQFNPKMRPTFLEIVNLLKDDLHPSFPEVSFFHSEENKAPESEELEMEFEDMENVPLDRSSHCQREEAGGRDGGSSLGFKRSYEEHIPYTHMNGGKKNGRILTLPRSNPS

INSRR = target: T18, INSRR (Homo sapiens, UniProt P14616)
T18 construct: DNA label (qPCR read-out); purchased KINOMEscan (DiscoveRx) ScanMAX panel

JNK1 = target: T19, JNK1 (Homo sapiens, UniProt P45983)
T19 construct: DNA label (for qPCR read-out); purchased DiscoveRx (KINOMEscan scanMAX panel)

MARK2 = MARK2 (Homo sapiens, UniProt Q7KZI7)
MRCKA = target: T20, MRCKA (Homo sapiens, UniProt Q5VT25)
T20 construct: DNA label (qPCR read-out); purchased KINOMEscan scanMAX panel (DiscoveRx)

MYLK = target: T21, MYLK (Homo sapiens, UniProt Q15746)
T21 construct: DNA label (for qPCR read-out); purchased KINOMEscan scanMAX panel (DiscoveRx)

NEK10 = target: T22, NEK10 (Homo sapiens, UniProt Q6ZWH5)
T22 construct: DNA label (qPCR read-out); purchased KINOMEscan (ScanMAX panel service)

NEK6 = target: T23, NEK6 (Homo sapiens, UniProt Q9HC98)
T23 construct: DNA label (qPCR read-out); purchased KINOMEscan (ScanMAX panel service)

NIK = target: T24, NIK (Homo sapiens, UniProt Q99558)
T24 construct: DNA label (qPCR read-out); purchased KINOMEscan (ScanMAX panel service)

NIM1 = target: T25, NIM1 (Homo sapiens, UniProt Q8IY84)
T25 construct: DNA label (qPCR read-out); purchased KINOMEscan (ScanMAX panel service)

OSR1 = target: T26, OSR1 (Homo sapiens, UniProt O95747)
T26 construct: purchased DiscoverX (KINOMEscan service)

PDPK1 = target: T27, PDPK1 (Homo sapiens, UniProt O15530)
T27 construct: DNA label (for qPCR read-out); purchased DiscoveRx (KINOMEscan scanMAX service)

PIK3C2G = target: T28, PIK3C2G (Homo sapiens, UniProt O75747)
T28 construct: DNA label (for qPCR read-out); purchased DiscoveRx (KINOMEscan scanMAX service)

PIK3CA(Q546K) = target: T29, PIK3CA(Q546K) (Homo sapiens, UniProt P42336, Q546K)
T29 construct: DNA label; purchased DiscoveRx (KINOMEscan scanMAX panel)

PIP5K1A = target: T30, PIP5K1A (Homo sapiens, UniProt Q99755)
T30 construct: DNA label (qPCR read-out); purchased KINOMEscan (DiscoveRx) panel

[1] = target: T31, RSK3(Kin.Dom.1-N-terminal) (Homo sapiens, UniProt Q15349)
T31 construct: RSK3(Kin.Dom.1); purchased DiscoveRx (KINOMEscan scanMAX panel)
T31 sequence (Q15349 59-318 limits assumed): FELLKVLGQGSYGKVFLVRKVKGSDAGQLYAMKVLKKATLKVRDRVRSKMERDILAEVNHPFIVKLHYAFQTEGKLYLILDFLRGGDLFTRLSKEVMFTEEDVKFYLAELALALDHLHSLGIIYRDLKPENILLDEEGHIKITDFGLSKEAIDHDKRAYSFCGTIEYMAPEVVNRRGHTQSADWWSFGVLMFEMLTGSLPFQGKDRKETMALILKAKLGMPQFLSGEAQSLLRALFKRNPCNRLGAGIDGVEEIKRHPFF

SGK = target: T32, SGK (Homo sapiens, UniProt O00141)
T32 construct: purchased DiscoveRx (KINOMEscan scanMAX panel)

SNRK = target: T33, SNRK (Homo sapiens, UniProt Q9NRH2)
T33 construct: purchased KINOMEscan (DiscoveRx)

SRPK1 = target: T34, SRPK1 (Homo sapiens, UniProt Q96SB4)
T34 construct: purchased KINOMEscan (DiscoveRx)

ULK2 = target: T35, ULK2 (Homo sapiens, UniProt Q8IYT8)
T35 construct: DNA label (for qPCR read-out); purchased DiscoveRx (KINOMEscan scanMAX panel)

Row | SMILES | % Ctrl (ACVR2B) [% Ctrl] | % Ctrl (ASK2) [% Ctrl] | % Ctrl (AURKB) [% Ctrl] | % Ctrl (BLK) [% Ctrl] | % Ctrl (BRSK2) [% Ctrl] | % Ctrl (CAMK1B) [% Ctrl] | % Ctrl (CDK5) [% Ctrl] | % Ctrl (CLK4) [% Ctrl] | % Ctrl (CSNK1A1) [% Ctrl] | % Ctrl (DLK) [% Ctrl] | % Ctrl (ERBB3) [% Ctrl] | % Ctrl (ERN1) [% Ctrl] | % Ctrl (FER) [% Ctrl] | % Ctrl (FLT3(D835V)) [% Ctrl] | % Ctrl (HIPK3) [% Ctrl] | % Ctrl (IKK-alpha) [% Ctrl] | % Ctrl (INSR) [% Ctrl] | % Ctrl (INSRR) [% Ctrl] | % Ctrl (JNK1) [% Ctrl] | % Ctrl (MARK2) [% Ctrl] | other results
1 | [2H]C([2H])([2H])N(C(=O)c1ccc(N2CCCN(c3ccnc4sc(C(N)=O)c(N)c34)CC2)cc1)C([2H])([2H])[2H] [15u_D6, 3-amino-4-(4-(4-(bis(methyl-d3)carbamoyl)phenyl)-1,4-diazepan-1-yl)thieno[2,3-b]pyridine-2-carboxamide] | 86 | 88 | 90 | 92 | 100 | 70 | 94 | 66 | 12 | 89 | 88 | 80 | 100 | 14 | 81 | 90 | 80 | 89 | 30 | 96 | % Ctrl (MRCKA): 100 % Ctrl; % Ctrl (MYLK): 71 % Ctrl; % Ctrl (NEK10): 61 % Ctrl; % Ctrl (NEK6): 100 % Ctrl; % Ctrl (NIK): 97 % Ctrl; % Ctrl (NIM1): 78 % Ctrl; % Ctrl (OSR1): 88 % Ctrl; % Ctrl (PDPK1): 96 % Ctrl; % Ctrl (PIK3C2G): 82 % Ctrl; % Ctrl (PIK3CA(Q546K)): 72 % Ctrl; % Ctrl (PIP5K1A): 100 % Ctrl; % Ctrl [1]: 77 % Ctrl; % Ctrl (SGK): 83 % Ctrl; % Ctrl (SNRK): 75 % Ctrl; % Ctrl (SRPK1): 97 % Ctrl; % Ctrl (ULK2): 83 % Ctrl
2 | CN(C)C(=O)c1ccc(N2CCCN(c3ccnc4sc(C(N)=O)c(N)c34)CC2)cc1 [15u, 3-amino-4-(4-(4-(dimethylcarbamoyl)phenyl)-1,4-diazepan-1-yl)thieno[2,3-b]pyridine-2-carboxamide] | 100 | 90 | 91 | 100 | 100 | 100 | 84 | 59 | 33 | 93 | 100 | 100 | 99 | 33 | 77 | 77 | 97 | 99 | 68 | 100 | % Ctrl (MRCKA): 94 % Ctrl; % Ctrl (MYLK): 74 % Ctrl; % Ctrl (NEK10): 93 % Ctrl; % Ctrl (NEK6): 92 % Ctrl; % Ctrl (NIK): 100 % Ctrl; % Ctrl (NIM1): 56 % Ctrl; % Ctrl (OSR1): 100 % Ctrl; % Ctrl (PDPK1): 100 % Ctrl; % Ctrl (PIK3C2G): 94 % Ctrl; % Ctrl (PIK3CA(Q546K)): 66 % Ctrl; % Ctrl (PIP5K1A): 100 % Ctrl; % Ctrl [1]: 99 % Ctrl; % Ctrl (SGK): 86 % Ctrl; % Ctrl (SNRK): 100 % Ctrl; % Ctrl (SRPK1): 100 % Ctrl; % Ctrl (ULK2): 90 % Ctrl
